According to patent US11401516B2, “Channel modulators” (AUCKLAND UNISERVICES LIMITED, priority 2014, dated 2022):
One block for each compound: values may come before it. Where a SMILES comes first, the peptide text is derived from it. Where no end group is shown, it is not given here. didodecyl = two dodecyl groups (C12-C12) conjugated at the N terminus

Columns and labels:
[1] = tested on: Cx43 hemichannel and pannexin channel mediated ATP release from hCMVEC cells; test: In vitro ischaemia injury ATP assay; assay type: cell-based, human
Procedure: (§1) Using an in vitro ischemia injury model, the Cx43 hemichannel and pannexin channel mediated ATP release was differentiated using the connexin hemichannel blocking mimetic peptide5 at 100 μM concentration (S. J. O'Carroll, et al., Cell communication & adhesion 15, 27 (May, 2008)) and 1 mM Probenecid (W. R. Silverman et al., The Journal of biological chemistry 284, 18143 (Jul. 3, 2009)).
Human cerebral microvascular endothelial cells (hCMVEC) were trypsinised (TrypLE Express, Life technologies) and plated at a density of 0.025×10^6 cells per well in a collagen-coated 12-well plate (1 μg/cm2) a day prior to the experiment. Cells were incubated in culture medium overnight. Hypoxic, acidic, ion-shifted Ringer injury solution that mimics ionic concentrations and acid-base shifts of the interstitial space in hypoxic-ischemic brains (A. Bondarenko, et al., Glia 34, 143 (Apr. 15, 2001)) was used to trigger hemichannel opening. The injury solution (in mM): 38 NaCl, 13 NaHCO3, 3 Na-gluconate, 65 K-gluconate, 38 NMDG-Cl, 1 NaH2PO4, 1.5 MgCl2, was bubbled in N2 gas (>99% purity, 20 L/min) for 5 minutes and pH adjusted to 6.6 using 5 M HCl. Control solution that mimics physiological conditions contained (in mM): 124 NaCl, 3 KCl, 26 NaHCO3, […], 1 NaH2PO4, 1.3 CaCl2, 1.5 MgCl2, and 10 Glucose, and pH 7.4 was adjusted using 5 M HCl (Bondarenko, 2001). […] Following a 2-hour injury the solutions were immediately placed on ice. In the injury and reperfusion model, hCMVEC cells were incubated in 500 μL of normal solution or injury solution for 2 hours at 37° C. in 95% O2 and 5% CO2. Following 2 hour injury, the solutions were discarded and replaced with 500 μL of the normal solution, or Tonabersat (10 μM) dissolved in normal solution, and were incubated for 2 hours at 37° C. in 95% O2 and 5% CO2. These solutions were also then immediately placed on ice. Peptide5 (100 μM)+/−Probenecid (1 mM) were used as controls for both injury and injury-reperfusion models. ATP concentration in the samples was determined using a Luciferin/luciferase bioluminescence reaction (ATP Determination Kit, Molecular Probes) and detected using a luminescence plate reader (VICTOR X, Perkin Elmer #2030-0010). Standard curves were generated in each experiment from an ATP standard (500 nM) to quantify the concentration of ATP in the test samples. The data is presented as mean±standard error relative to the injury or injury-reperfusion control. Statistically significant differences between samples were identified using one-way analysis of variance and Tukey's multiple comparisons test.

hCMVEC cells = test: Scrape load assay (Lucifer yellow dye transfer); assay type: cell-based, human; conditions: broad spectrum gap-junction blocker, concentration not given
Procedure: In the below Examples 2, 4, 5, 8 and 10 using human cerebral microvascular endothelial cells (hCMVEC), cells were prepared by growing them in collagen coated (30 μg/mL) T25 or T75 flasks maintained in Medium M199 supplemented with 10% FCS, 1 μg/mL hydrocortisone, 3 ng/mL hFGF, 1 ng/mL hEGF, 10 μg/mL heparin, 1× penicillin streptomycin neomycin (Life Technologies), and cAMP (100 μL 100% cAMP to 100 mL media). Cells were maintained at 37° C. with 95% O2 and 5% CO2.
In this Example, human cerebral microvascular endothelial cells (hCMVEC) were grown in collagen coated (1 μg/mL) T25 flasks maintained in Medium M199 supplemented with 10% FBS, 1 μg/mL hydrocortisone, 3 ng/mL hFGF, 1 ng/mL hEGF, 10 μg/mL heparin and cAMP (100 μL 100% cAMP to 100 mL media) in a humidified atmosphere at 37° C. with 5% CO2. One day prior to experimentation, these cells were trypsinized and plated at a density of 4×10^5 cells/well in a collagen-coated 12 well-plate in the same medium. For treatments, cells were cultured in the presence of peptide5, a control gap junction channel blocker (carbenoxolone), or tonabersat for the respective time intervals prior to scrape dye loading. The blockers were also present in the respective scrape loading solutions.
For scrape loading the hCMVEC cells were washed three times with phosphate buffered saline (PBS) (without divalent cations). A solution of PBS+0.05% lucifer yellow was added to cells. The cells then received a scrape to the monolayer using a size 10 carbon steel surgical blade and incubated in the dark at 37° C. with 5% CO2 for 5 minutes. The cells were washed with PBS four times and then 1 mL of PBS added for fluorescent microscopy.
The live cells were then imaged on a Nikon TE2000E fluorescent microscope whilst maintained in a chamber heated to 37° C. with 5% CO2. Three images pairs were obtained at 10× magnification for each of a phase contrast image to view total cells and a fluorescent image to visualize Lucifer yellow using 488 nm excitation and a GFP filter block. Gap junctional communication was determined by counting the number of Lucifer yellow positive cells and presented as a percentage to the positive cells of the control group. Data was graphed as mean+standard error of the mean using Prism v5.02 software. Significance was determined through students two-tailed, unpaired, T Tests. *=p<0.05, **=[…], ***=p<0.001.
An in vitro scrape-loading assay with extracellular Lucifer Yellow (LY), a fluorescent dye that is transferred only through coupled GJs was performed to test whether Tonabersat inhibits GJ communication (M. H. el-Fouly, et al., Experimental cell research 168, 422 (February, 1987)). A single scrape wound was made to a confluent monolayer of hCMVEC cells to enable LY dye to gain access to the cytoplasm of cells at the edge of the wounded region and allow the dye to transfer to adjacent cells through GJs.

Connexin43 hemichannel = molecular target: T1, Connexin43 hemichannel (Homo sapiens, UniProt P17302); test: Whole-cell voltage clamp, Connexin43 transfected HeLa cells; assay type: cell-based; conditions: voltage steps; peptide5 100 μM; carbenoxolone and LaCl3 concentration not stated
T1 construct: expressed in transfected cells; host or cells: HeLa (connexin-deficient parent), Cx43IRESeGFP, puromycin selection
Procedure: Whole-cell voltage clamp studies were conducted on connexin deficient HeLa cells, Connexin43 transfected HeLa cells and isolated human cerebral microvascular endothelial cells (hCMVEC).
HeLa cells were seeded at 0.045×10^6 cells/mL on 18 mm rat collagen I coated coverslips 16-24 hours before each experiment. Cx43IRESeGFP HeLa cells were cultured overnight in DMEM supplemented with 10% FCS and 1 μg/mL Puromycin at 37° C. at 95% O2 and 5% CO2. Control Cx-deficient cells were maintained in DMEM supplmented with 10% FCS. Coverslips were transferred to a chamber continuously perfused with modified Krebs-Ringer solution containing (in mM): 140 NaCl, 5.4 KCl, 1 MgCl2, 10 mM Hepes and pH adjusted to 7.4 at room temperature. The internal pipette solution contained (in mM): 130 KCl, 10 sodium aspartate, 0.26 CaCl2, 2 EGTA, 5 tetraethylammonium-Cl, 1 MgCl, 3 MgATP, and 5 Hepes at pH 7.2; and was kept on ice. The solutions are described in Contreras J E, et al., Cell Communication and Adhesion (2003), 10:245-249. To resolve single currents in whole-cell configuration, cells with low capacitance (<10 pF) and high resistance pipettes ([…]) with a seal resistance of (>5 GOhm) were selected for recording and analysis.

[2] = bovine
[3] = tested on: Cx43 hemichannel and pannexin channel mediated ATP release from hCMVEC cells; test: In vitro ischaemia injury-reperfusion ATP assay; assay type: cell-based, human; conditions: 2 h, 1000 µM
Procedure: as §1
Human cerebral microvascular endothelial cells (hCMVEC) were trypsinised (TrypLE Express, Life technologies) and plated at a density of 0.025×10^6 cells per well in a collagen-coated 12-well plate (1 μg/cm2) a day prior to the experiment. Cells were incubated in culture medium overnight. Hypoxic, acidic, ion-shifted Ringer injury solution that mimics ionic concentrations and acid-base shifts of the interstitial space in hypoxic-ischemic brains (A. Bondarenko, et al., Glia 34, 143 (Apr. 15, 2001)) was used to trigger hemichannel opening. […] ATP concentration in the samples was determined using a Luciferin/luciferase bioluminescence reaction (ATP Determination Kit, Molecular Probes) and detected using a luminescence plate reader (VICTOR X, Perkin Elmer #2030-0010). Standard curves were generated in each experiment from an ATP standard (500 nM) to quantify the concentration of ATP in the test samples. […]

Retinal ganglion cell = test: Retinal ischemia reperfusion (glaucoma model), RGC count; assay type: in vivo, Wistar rats; conditions: after 28 days
Procedure: (§2) The effects of chemical modification and particulate formulation delivery were measured on rats modelled for glaucoma with a retinal ischemia reperfusion. First, a retinal ischemia reperfusion model was created. A total of 121 adult male Wistar rats weighing 200 to 300 g were used for the study. Retinal ischemia was modeled in the left eye (120 mmHg for 60 min), with the right eye as the control, and then the connexin 43 modulator peptide formulations were injected intravitreally immediately as solutions in 1×PBS delivery agent. The connexin 43 modulator peptide used was SEQ-Pept5, in both its unmodified and chemically modified (didodecyl) forms. The formulations used were neat (just diluted in 1×PBS delivery media) solutions of nanoparticles or microparticles. After reperfusion, Evan's blue dye was injected intraperitoneally 4 hr after reperfusion to visualize vessel leak using confocal microscopy. Retinal whole mounts were collected at 8 hr and 28 days for Cxn43 quantitification, and 28 and 90 days for gangliol cell (RGC) density quantification.

Cxn43 = Cxn43 (Rattus norvegicus, UniProt P08050); test: Retinal ischemia reperfusion (glaucoma model), Cxn43 quantification; assay type: in vivo, Wistar rats; conditions: 8 hr after ischemia
Procedure: as §2

retinal vessel leak = test: Retinal ischemia reperfusion (glaucoma model), vessel leak with Evan's blue dye; assay type: in vivo, Wistar rats; conditions: 4 hr post-ischemia, intravitreal
Procedure: as §2

T1 sequence (P17302 2-382 limits assumed): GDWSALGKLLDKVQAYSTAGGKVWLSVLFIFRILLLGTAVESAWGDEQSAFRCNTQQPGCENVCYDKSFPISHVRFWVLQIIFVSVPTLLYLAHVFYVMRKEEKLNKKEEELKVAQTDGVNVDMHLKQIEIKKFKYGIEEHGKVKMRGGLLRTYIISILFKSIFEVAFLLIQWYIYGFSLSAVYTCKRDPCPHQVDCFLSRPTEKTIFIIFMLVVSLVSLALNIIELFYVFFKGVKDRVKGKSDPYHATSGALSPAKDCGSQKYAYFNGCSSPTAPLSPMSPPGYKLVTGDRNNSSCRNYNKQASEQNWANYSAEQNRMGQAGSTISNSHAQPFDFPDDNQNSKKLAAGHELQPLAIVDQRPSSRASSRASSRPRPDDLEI
Sequence of Cxn43 (P08050 2-382 limits assumed): as the sequence (P17302 2-382 limits assumed) above, with D123E, I163V, K242R, S250T, A252P, A256S, Q262P, S343A, L346V counted along it

Compound: CC1(C)[C@@H](OC(=O)CCC(=O)O)CC[C@]2(C)[C@H]3C(=O)C=C4[C@@H]5C[C@@](C)(C(=O)O)CC[C@]5(C)CC[C@@]4(C)[C@]3(C)CC[C@@H]12 [Carbenoxolone]
level of the inhibition of ATP release ([1]; ischemic injury): 65%
LY positive cells compared to control (hCMVEC cells): 77.8±7.4%
Connexin43 hemichannel activity (Connexin43 hemichannel): virtually complete hemichannel block

half-life [2]: ~2 h
Compound: CC(C)C[C@H](NC(=O)[C@H](Cc1ccccc1)NC(=O)[C@H](CS)NC(=O)[C@H](CC(=O)O)NC(=O)[C@@H](N)C(C)C)C(=O)N[C@@H](CO)C(=O)N[C@@H](CCCNC(=N)N)C(=O)N1CCC[C@H]1C(=O)N[C@H](C(=O)N[C@@H](CCC(=O)O)C(=O)N[C@@H](CCCCN)C(=O)N[C@H](C(=O)O)[C@@H](C)O)[C@@H](C)O [Peptide5] (H-VDCFLSRPTEKT-OH)

Compound: CCCN(CCC)S(=O)(=O)c1ccc(C(=O)O)cc1 [Probenecid, p-[Dipropylsulfamoyl]benzoic acid]
total extracellular ATP release, percentage of the injury control ([1]; 2-hour injury, 100 μM Peptide5, 1 mM Probenecid, alone or combined): 83.1±4.5%
ATP release, percentage of the injury-reperfusion (IR) control [3]: 99.3±4.4%

Compound: C12-C12 Cxn43 MP: connexin 43 modulator peptide conjugated at the N terminus to two dodecyl groups, SEQ ID NO: 237 (didodecyl-VDCFLSRPTEKT)
RGC survival (Retinal ganglion cell): over 93%
Cxn43 spot counts (Cxn43): reduced moreso
vessel leak (retinal vessel leak): reduction in vessel leak
